Measurements reported in patent publication US20050208496A1, “Methods of testing for bronchial asthma or chronic obstructive pulmonary disease” (Genox Research, Inc., priority 2002, published 2005).
Values joined by “and” are separate entries in the source; they are usually repeats but may differ in a detail not shown here. Equal entries are not always repeated.

Test system: mouse counterpart genes
Assay: Mouse GeneChip (MG-U74A to MG-U74C) analysis of lung and trachea of the OVA antigen-exposed bronchial hypersensitivity model, S-Sal group versus S-OVA group
Type: in vivo
[1] = S-Sal vs S-OVA group, 2nd, P/A: P
[2] = S-Sal vs S-OVA group, 3rd, P/A: A
[3] = S-Sal vs S-OVA group, 3rd, P/A: P

ovalbumin [OVA antigen, ovalbumin antigen used for sensitization and inhalation to induce bronchial hypersensitivity in mice]
0.909: Fold Change, DNA segment. Chr 16. ERATO Doi 269, expressed (mouse probe 97821_at) (mouse, in vivo) | Fold Change, DNA segment. Chr 16. ERATO Doi 269, expressed (mouse probe 97822_at) (mouse, in vivo) | Fold Change, DnaJ (Hsp40) homolog, subfamily A, member 1 (mouse Probe ID 97261_at) (mouse, in vivo) | Fold Change, SAM domain and HD domain, 1 (mouse Probe ID 103080_at) (mouse, in vivo) | Fold Change, cathepsin C (mouse Probe ID 101020_at) (mouse, in vivo) | Fold Change, dual specificity phosphatase 14 (mouse Probe ID 171285_at) (mouse, in vivo) | Fold Change, expressed sequence AI463430 (mouse Probe ID 112883_at) (mouse, in vivo) | Fold Change, expressed sequence AI839647 (mouse Probe ID 110839_at) (mouse, in vivo) | Fold Change, growth arrest and DNA-damage-inducible 45 gamma (mouse Probe ID 109336_at) (mouse, in vivo) | Fold Change, hydroxysteroid (17-beta) dehydrogenase 2 (mouse Probe ID 101891_at) (mouse, in vivo) | Fold Change, membrane-associated protein 17 (mouse probe 96935_at) (mouse, in vivo) | Fold Change, neurotrophic tyrosine kinase, receptor type 1 (mouse probe 110116_at) (mouse, in vivo) | Fold Change, osteoblast specific factor 2 (fasciclin I-like) (mouse Probe ID 92593_at) (mouse, in vivo) | Fold Change, procollagen lysine, 2-oxoglutarate 5-dioxygenase 2 (mouse Probe ID 114376_at) (mouse, in vivo) | Fold Change, reticulocalbin 2 (mouse Probe ID 93281_at) (mouse, in vivo) | Fold Change, thioredoxin reductase 1 (mouse Probe ID 99985_at) (mouse, in vivo)
2.2: Fold Change, neutrophil cytosolic factor 2 (mouse Probe ID 102326_at) [1]
1.6: Fold Change, signal transducer and activator of transcription 1 (mouse Probe ID 101465_at) [1]
8.7: Fold Change, acid phosphatase 5, tartrate resistant (mouse Probe ID 162543_r_at) [2]
2.4: Fold Change, RAS guanyl releasing protein 1 (mouse Probe ID 167498_i_at) [2]
0.769 and 0.909: Fold Change, hydroxysteroid (17-beta) dehydrogenase 2 (mouse Probe ID 169670_at) (mouse, in vivo) | Fold Change, sialyltransferase 1 (beta-galactoside alpha-2,6-sialyltransferase) (mouse Probe ID 167200_r_at) (mouse, in vivo)
1.3: Fold Change, RAS guanyl releasing protein 1 (mouse Probe ID 98307_at) [2] | Fold Change, nuclear factor, interleukin 3, regulated (mouse Probe ID 164758_i_at) [2] | Fold Change, ubiquitin fusion degradation 1 like (mouse Probe ID 93303_at) [3] | Fold Change, zinc finger protein 263 (mouse Probe ID 109154_at) [3]
0.833: Fold Change, expressed sequence AI839647 (mouse Probe ID 110839_at) [1] | Fold Change, reticulocalbin 2 (mouse Probe ID 93281_at) [1] | Fold Change, zinc finger protein 263 (mouse Probe ID 109154_at) [1] | Fold Change, RIKEN cDNA 4933419D20 gene (mouse Probe ID 97442_at) [3]
0.625: Fold Change, DNA-damage inducible transcript 3 (mouse Probe ID 101429_at) [2] | Fold Change, keratin complex 1, acidic, gene 16 (mouse Probe ID 164428_i_at) [2] | Fold Change, ubiquitin D (mouse Probe ID 92715_at) [2]
0.769: Fold Change, A kinase (PRKA) anchor protein 10 (mouse probe 163162_at) (mouse, in vivo) | Fold Change, MP and activin membrane-bound inhibitor, homolog (Xanopus laevis) (mouse probe 162531_at) (mouse, in vivo) | Fold Change, RIKEN cDNA 6330404C01 gene (mouse Probe ID 166590_at) (mouse, in vivo) | Fold Change, a disintegrin and metalloprotease domain 8 (mouse probe 103024_at) (mouse, in vivo) | Fold Change, acid phosphatase 5, tartrate resistant (mouse Probe ID 98859_at) (mouse, in vivo) | Fold Change, claudin 5 (mouse probe 104516_at) (mouse, in vivo) | Fold Change, decay accelerating factor 1 (mouse probe 164905_r_at) (mouse, in vivo) | Fold Change, fructose bisphosphatase 1 (mouse Probe ID 96918_at) (mouse, in vivo) | Fold Change, interleukin 1 receptor-like 1 (mouse probe 98501_at) (mouse, in vivo) | Fold Change, matrix metalloproteinase 7 (mouse probe 162318_r_at) (mouse, in vivo) | Fold Change, polycystic kidney disease 2 (mouse probe 100951_at) (mouse, in vivo) | Fold Change, transforming growth factor, beta 2 (mouse Probe ID 93300_at) (mouse, in vivo) | Fold Change, transmembrane 4 superfamily member 8 (mouse Probe ID 97912_at) (mouse, in vivo) | Fold Change, zinc finger protein 263 (mouse Probe ID 109154_at) (mouse, in vivo)
1.9: Fold Change, signal transducer and activator of transcription 1 (mouse Probe ID 114635_at) [1]
1.5: Fold Change, cytokine inducible SH2-containing protein 1 (mouse Probe ID 92832_at) [3] | Fold Change, expressed sequence AI463430 (mouse Probe ID 112883_at) [3]
0.455: Fold Change, serine (or cysteine) proteinase inhibitor, clade B (ovalbumin), member 2 (mouse Probe ID 92978_s_at) [1]
1.2: Fold Change, cathepsin C (mouse Probe ID 161251_f_at) [2] | Fold Change, serine (or cysteine) proteinase inhibitor, clade B (ovalbumin), member 2 (mouse Probe ID 137166_r_at) [2] | Fold Change, neutrophil cytosolic factor 2 (mouse Probe ID 102326_at) [3]
1.7: Fold Change, serine (or cysteine) proteinase inhibitor, clade B (ovalbumin), member 2 (mouse Probe ID 92978_s_at) [2] | Fold Change, acid phosphatase 5, tartrate resistant (mouse Probe ID 98859_at) [3]
0.909 and 0.769: Fold Change, ESTs AI844322 (mouse Probe ID 110469_at) (mouse, in vivo) | Fold Change, cholesterol 25-hydroxylase (mouse probe 133666_at) (mouse, in vivo) | Fold Change, thioredoxin reductase 1 (mouse Probe ID 161284_r_at) (mouse, in vivo)
0.714: Fold Change, RIKEN cDNA A2301D9K23 gene (mouse Probe ID 166475_r_at) (mouse, in vivo) | Fold Change, cadherin 6 (mouse Probe ID 101730_at) (mouse, in vivo) | Fold Change, dipeptidylpeptidase 4 (mouse Probe ID 92634_at) (mouse, in vivo) | Fold Change, fatty acid binding protein 4, adipocyte (mouse Probe ID 100567_at) (mouse, in vivo) | Fold Change, fetuin beta (mouse Probe ID 108524_at) (mouse, in vivo) | Fold Change, hydroxysteroid (17-beta) dehydrogenase 2 (mouse Probe ID 166141_i_at) (mouse, in vivo) | Fold Change, intercellular adhesion molecule (mouse Probe ID 96752_at) (mouse, in vivo) | Fold Change, interferon gamma inducible protein 30 (mouse probe 164423_at) (mouse, in vivo) | Fold Change, low density lipoprotein receptor-related protein associated protein 1 (mouse probe 100086_at) (mouse, in vivo) | Fold Change, low density lipoprotein receptor-related protein associated protein 1 (mouse probe 161988_f_at) (mouse, in vivo) | Fold Change, nitric oxide synthase 2, inducible, macrophage (mouse Probe ID 104420_at) (mouse, in vivo) | Fold Change, nuclear factor, interleukin 3, regulated (mouse Probe ID 164758_i_at) (mouse, in vivo) | Fold Change, phosphotidylinositol transfer protein, beta (mouse probe 102696_s_at) (mouse, in vivo) | Fold Change, serine (or cysteine) proteinase inhibitor, clade B (ovalbumin), member 6 (mouse Probe ID 96060_at) (mouse, in vivo) | Fold Change, ubiquitin D (mouse Probe ID 92715_at) (mouse, in vivo)
0.714 and 0.769: Fold Change, a disintegrin and metalloprotease domain 28 (mouse probe 101723_r_at) (mouse, in vivo)
0.667: Fold Change, ubiquitin D (mouse Probe ID 169362_f_at) [2]
2.3: Fold Change, dual specificity phosphatase 14 (mouse Probe ID 171285_at) [2]
1.4: Fold Change, RIKEN cDNA A2301D9K23 gene (mouse Probe ID 163453_at) [2] | Fold Change, ubiquitin D (mouse Probe ID 168938_r_at) [2] | Fold Change, DEAD (aspartate-glutamate-alanine-aspartate) box polypeptide 5 (mouse Probe ID 113899_at) [3]
1.1: Fold Change, cathepsin C (mouse Probe ID 101019_at) [1] | Fold Change, dual specificity phosphatase 14 (mouse Probe ID 162702_at) [1] | Fold Change, dual specificity phosphatase 14 (mouse Probe ID 165144_r_at) [2] | Fold Change, keratin complex 1, acidic, gene 16 (mouse Probe ID 103589_at) [2] | Fold Change, ribosomal protein S16 (mouse Probe ID 169860_r_at) [2] | Fold Change, DEAD (aspartate-glutamate-alanine-aspartate) box polypeptide 5 (mouse Probe ID 93493_at) [3] | Fold Change, fatty acid binding protein 4, adipocyte (mouse Probe ID 100567_at) [3] | Fold Change, signal transducer and activator of transcription 1 (mouse Probe ID 114635_at) [3]
1: Fold Change, integrin-associated protein (mouse Probe ID 103611_at) [1] | Fold Change, ribosomal protein S16 (mouse Probe ID 97647_at) [1] | Fold Change, RIKEN cDNA 4933419D20 gene (mouse Probe ID 112237_at) [3] | Fold Change, cathepsin C (mouse Probe ID 101019_at) [3] | Fold Change, dual specificity phosphatase 14 (mouse Probe ID 162702_at) [3] | Fold Change, integrin-associated protein (mouse Probe ID 103611_at) [3] | Fold Change, ribosomal protein S16 (mouse Probe ID 97647_at) [3] | Fold Change, signal transducer and activator of transcription 1 (mouse Probe ID 101465_at) [3]
